Test results published in ChEMBL document CHEMBL1142475, “1,2,3-Thiadiazole thioacetanilides as a novel class of potent HIV-1 non-nucleoside reverse transcriptase inhibitors” (Bioorg Med Chem Lett, 2008).

Key:
[1] = Cytotoxicity against human MT4 cells; format: cell-based
[2] = Selectivity index, ratio of CC50 for human MT4 cells to EC50 for HIV1 3B; format: toxicity, cell-based; details: for Activity: mt4; for selectivity ratio: MT4 cells, read-out: Ratio CC50/EC50
[3] = tested on: Human immunodeficiency virus 1; experiment: Antiviral activity against HIV1 3B in human MT4 cells assessed as protection of cell against virus-induced cytopathogenicity; format: functional, organism-based; details: Human immunodeficiency virus 1, 3B

Structure (SMILES): Cc1ccnc2c1NC(=O)c1cccnc1N2C1CC1 [NEVIRAPINE]
- CC50 [1]: > 15 µM

Structure (SMILES): O=C(CSc1snnc1-c1ccccc1)Nc1ccccc1[N+](=O)[O-]
- Activity [2]: Not Active
- EC50 [3]: ≥ 54.2 µM
- CC50 [1]: ≥ 247 µM

Structure (SMILES): COc1ccc(-c2nnsc2SCC(=O)Nc2ccc(C)cc2Br)cc1
- selectivity ratio [2]: 49
- EC50 [3]: 5.06 µM
- CC50 [1]: 249 µM

Structure (SMILES): Cc1cn([C@H]2C[C@H](N=[N+]=[N-])[C@@H](CO)O2)c(=O)[nH]c1=O [ZIDOVUDINE]
- selectivity ratio [2]: > 6190
- EC50 [3]: 0.0151 µM
- CC50 [1]: > 93.5 µM

Structure (SMILES): O=C(CSc1snnc1-c1ccccc1)Nc1ccccc1F
- Activity [2]: Not Active
- EC50 [3]: 362 µM
- CC50 [1]: > 362 µM

Structure (SMILES): CC(C)Nc1cccnc1N1CCN(C(=O)c2cc3cc(NS(C)(=O)=O)ccc3[nH]2)CC1 [DELAVIRDINE]
- selectivity ratio [2]: > 12
- EC50 [3]: 0.32 µM
- CC50 [1]: > 3.83 µM

Structure (SMILES): O=C(CSc1snnc1-c1ccc(Cl)cc1Cl)Nc1ccccc1Cl
- selectivity ratio [2]: 943
- EC50 [3]: 0.118 µM
- CC50 [1]: 111 µM

Structure (SMILES): Cc1ccc(NC(=O)CSc2snnc2-c2ccccc2)c(Br)c1
- selectivity ratio [2]: > 22
- EC50 [3]: 13.7 µM
- CC50 [1]: > 297 µM

Structure (SMILES): O=C(CSc1snnc1-c1ccccc1)Nc1ccccc1Br
- selectivity ratio [2]: > 14
- EC50 [3]: 22.4 µM
- CC50 [1]: > 308 µM

Structure (SMILES): COc1ccc(-c2nnsc2SCC(=O)Nc2ccccc2Cl)cc1
- selectivity ratio [2]: > 121
- EC50 [3]: 2.63 µM
- CC50 [1]: > 319 µM

Structure (SMILES): COC(=O)c1ccc(NC(=O)CSc2snnc2-c2ccccc2)c(Br)c1
- selectivity ratio [2]: > 53
- EC50 [3]: 5.1 µM
- CC50 [1]: > 269 µM

Structure (SMILES): O=C(CSc1snnc1-c1ccc(F)cc1F)Nc1ccccc1Br
- EC50 [3]: 2.26 µM
- CC50 [1]: 144 µM

Structure (SMILES): O=C(CSc1snnc1-c1ccc(Cl)cc1Cl)Nc1ccccc1F
- selectivity ratio [2]: 145
- EC50 [3]: 0.135 µM
- CC50 [1]: 19.5 µM

Structure (SMILES): O=C(CSc1snnc1-c1ccccc1)Nc1ccccc1Cl
- selectivity ratio [2]: > 13
- EC50 [3]: 26.1 µM
- CC50 [1]: > 345 µM

Structure (SMILES): NS(=O)(=O)c1ccc(NC(=O)CSc2nnc(Br)n2-c2ccc(C3CC3)c3ccccc23)c(Cl)c1
- EC50 [3]: 0.14 µM

Structure (SMILES): COC(=O)c1ccc(NC(=O)CSc2snnc2-c2ccc(OC)cc2)c(Br)c1
- selectivity ratio [2]: 97
- EC50 [3]: 2 µM
- CC50 [1]: 195 µM

Structure (SMILES): CCOC(=O)c1ccc(NC(=O)CSc2snnc2-c2ccccc2)c(Br)c1
- selectivity ratio [2]: ≥ 45
- EC50 [3]: 5.21 µM
- CC50 [1]: ≥ 232 µM

Structure (SMILES): COc1ccc(-c2nnsc2SCC(=O)Nc2ccccc2[N+](=O)[O-])cc1
- selectivity ratio [2]: ≥ 283
- EC50 [3]: 0.99 µM
- CC50 [1]: ≥ 281 µM

Structure (SMILES): COc1ccc(-c2nnsc2SCC(=O)Nc2ccccc2Br)cc1
- selectivity ratio [2]: > 90
- EC50 [3]: 3.19 µM
- CC50 [1]: > 286 µM

Structure (SMILES): O=C1Nc2ccc(Cl)cc2[C@@](C#CC2CC2)(C(F)(F)F)O1 [EFAVIRENZ]
- selectivity ratio [2]: > 1430
- EC50 [3]: 0.0044 µM
- CC50 [1]: > 6.34 µM

Structure (SMILES): O=C(CSc1snnc1-c1ccc(F)cc1F)Nc1ccccc1[N+](=O)[O-]
- selectivity ratio [2]: 40
- EC50 [3]: 4.14 µM
- CC50 [1]: 165 µM

Structure (SMILES): O=C(CSc1snnc1-c1ccc(Cl)cc1Cl)Nc1ccccc1Br
- selectivity ratio [2]: ≥ 981
- EC50 [3]: 0.149 µM
- CC50 [1]: ≥ 147 µM

Structure (SMILES): CCOC(=O)c1ccc(NC(=O)CSc2snnc2-c2ccc(OC)cc2)c(Br)c1
- selectivity ratio [2]: > 82
- EC50 [3]: 3.01 µM
- CC50 [1]: > 246 µM

Structure (SMILES): Cc1ccc(NC(=O)CSc2snnc2-c2ccc(F)cc2F)c(Br)c1
- selectivity ratio [2]: > 189
- EC50 [3]: 1.45 µM
- CC50 [1]: > 274 µM

Structure (SMILES): COc1ccc(-c2nnsc2SCC(=O)Nc2ccccc2F)cc1
- Activity [2]: Not Active
- EC50 [3]: 333 µM
- CC50 [1]: > 333 µM

Structure (SMILES): O=C(CSc1snnc1-c1ccc(F)cc1F)Nc1ccccc1Cl
- selectivity ratio [2]: 146
- EC50 [3]: 1.23 µM
- CC50 [1]: 178 µM

Structure (SMILES): Cc1ccc(NC(=O)CSc2snnc2-c2ccc(Cl)cc2Cl)c(Br)c1
- selectivity ratio [2]: > 1260
- EC50 [3]: 0.204 µM
- CC50 [1]: > 256 µM

Structure (SMILES): Cc1ccc(-n2c(C)nnc2SCC(=O)Nc2ccccc2)cc1
- EC50 [3]: 2.05 µM

Structure (SMILES): CCOC(=O)c1ccc(NC(=O)CSc2snnc2-c2ccc(Cl)cc2Cl)c(Br)c1
- selectivity ratio [2]: > 2300
- EC50 [3]: 0.099 µM
- CC50 [1]: > 228 µM

Structure (SMILES): O=C(CSc1snnc1-c1ccc(F)cc1F)Nc1ccccc1F
- selectivity ratio [2]: 27
- EC50 [3]: 5.45 µM
- CC50 [1]: 148 µM

Structure (SMILES): O=C(CSc1snnc1-c1ccc(Cl)cc1Cl)Nc1ccccc1[N+](=O)[O-]
- selectivity ratio [2]: > 4880
- EC50 [3]: 0.059 µM
- CC50 [1]: > 283 µM
